The source of these data is patent US12595449B2, “Integrated system for 3D tissue culture” (Valo Health, Inc., priority 2020, dated 2026).

This assay relates to human engineered cardiac tissues (human iPSC derived cardiomyocytes co-cultured with human cardiac fibroblasts). Nature of the assay: Drug testing with electrical stimulation of engineered cardiac tissues in the Biowire II 96-well plate (contractile dynamics from polymer wire displacement). As to conditions: thapsigargin 50×10^−6 m, n=2; for frequency of tissue beating: constant stimulation frequency 1.5 Hz, day 19, video after 15 min; for tissue contraction and relaxation time: electrical pacing 1.5 Hz, day 19 (after 12 days of electrical stimulation), video after 15 min. It is filed as cell-based. The method, then:
To generate cardiac tissues, human iPSC derived cardiomyocytes co-cultured with human cardiac fibroblasts were seeded with hydrogel in the 96-well plate device. Tissue compaction in the first seven days was observed (FIG. 7A, FIG. 7B), with dramatic change in the first two days followed by stabilization after day 3. Electrical field stimulation of cardiac tissues was initiated at day 7 and continued for the additional 12 days. […] Thapsigargin (50×10^-6 m), an inhibitor of sarcoplasmic reticulum function in cardiomyocytes, was added in the presence of electrical pacing (1.5 Hz), resulting in a prolonged tissue contraction and relaxation time (FIG. 7H). […] Predominantly ventricular cardiomyocytes (CMs) were derived from the hiPSC line BJ1D, using monolayer differentiation protocols as previously described. At day 21 of differentiation, cardiomyocytes were disassociated into single cells with previously established methods. Briefly, 1 mg mL^-1 of collagenase type II (Worthington, LS004205) in Hank's Balanced Salt Solution was added to the monolayer cardiomyocyte cultures and incubated overnight at room temperature. The disassociated cells were mixed with cardiac fibroblasts (Lonza, NHCF-V) in a 10:1 cell number ratio. The mixed cells were pelleted and remixed in collagen hydrogel at 5.5×10^7 cells mL^-1. The cell-gel mixture was seeded at […] per microwell. A droplet of media was placed on the wall of the well to keep the moisture until gelation was complete. The plate was incubated at 37° C. and 5% CO2 for 10 min followed by media addition. After seeding (day 0), the tissues were cultured for seven days to allow remodeling around the POMaC wires. Bright field images of the tissues were taken daily to monitor tissue morphology. By day 7, the tissues synchronously contracted and deflected the POMaC wire with each contraction. SpectraMax […] 300 Imaging Cytometer was used to image tissues in the well plate to monitor the daily morphology changes of tissues. Nine pictures were taken in each well of the 96-well plate and automatically stitched together to show the entire view of the well. […] Average tissue width and width of the tissue (Tw), attachment site to the polymer sensor were measured using bright field images at the relaxed state. Passive displacement of polymer sensors was assessed in blue channel. […] The final readouts for the total and passive forces were interpolated according to the Tw and custom tip sizes. […] With built-in force sensor and electrodes, tissues were able to be assessed in situ in terms of their contractile dynamics and drug responses. […] The videos were analyzed using the custom MATLAB software. […]

Turning to `C/C=C(/C)C(=O)O[C@H]1C(C)=C2[C@H]([C@@H]1OC(=O)CCCCCCC)[C@@](C)(OC(C)=O)C[C@H](OC(=O)CCC)[C@@]1(O)[C@H]2OC(=O)[C@@]1(C)O` [Thapsigargin], the “frequency of tissue beating” value is listed as “decreased by half”; the “tissue contraction and relaxation time” value is recorded as “prolonged”. Under “listed as thapsigargin”, the “frequency of tissue beating” value is listed as “reduced by half”; the “tissue contraction and relaxation time” value was “slowed”.
